Laboratory results from PubChem BioAssay AID192 (DTP/NCI, 2004).
Where “and” joins values, the source holds several entries; their conditions need not be identical. Equal entries are not always repeated. Inconclusive results and toxic doses are left out.

Tested on: BDF1 mice, B16 melanoma ip, median survival T/C
Assay: NCI In Vivo Anticancer Drug Screen. Data for tumor model B16 Melanoma (intraperitoneal) in B6D2F1 (BDF1) mice
Conditions: endpoint: median survival time, higher = longer survival
Method in brief: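 Vehicle-treated animals serve as the reference (C); treated animals (T) are scored for survival or tumor size after tumor transplantation.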

[1] = dose: 12.5 mg/kg/injection, schedule: Q01DX009 (ip), vehicle: saline
[2] = dose: 2.5 mg/kg/injection, schedule: Q01DX009 (ip), vehicle: Klucel (hydroxypropylcellulose) (HPC)
[3] = dose: 5.0 mg/kg/injection, schedule: Q01DX009 (ip), vehicle: Klucel (hydroxypropylcellulose) (HPC)
[4] = dose: 100.0 mg/kg/injection, schedule: Q01DX009 (ip), vehicle: Klucel (hydroxypropylcellulose) (HPC)
[5] = dose: 200.0 mg/kg/injection, schedule: Q01DX009 (ip), vehicle: Klucel (hydroxypropylcellulose) (HPC)
[6] = dose: 400.0 mg/kg/injection, schedule: Q01DX009 (ip), vehicle: Klucel (hydroxypropylcellulose) (HPC)
[7] = dose: 50.0 mg/kg/injection, schedule: Q01DX009 (ip), vehicle: Klucel (hydroxypropylcellulose) (HPC)

## OCC1(CO)COC2(CCCCC2)N1
[1]
  T/C: 110 % of control
dose: 25.0 mg/kg/injection, schedule: Q01DX009 (ip), vehicle: saline
  T/C: 116 % of control
dose: 50.0 mg/kg/injection, schedule: Q01DX009 (ip), vehicle: saline
  T/C: 109 % of control
dose: 100.0 mg/kg/injection, schedule: Q01DX009 (ip), vehicle: saline
  T/C: 103 % of control
dose: 200.0 mg/kg/injection, schedule: Q01DX009 (ip), vehicle: saline
  T/C: 112 % of control
dose: 400.0 mg/kg/injection, schedule: Q01DX009 (ip), vehicle: saline
  T/C: 108 % of control

## CC(=O)Nc1ccn(C2OC(COC(C)=O)C(OC(C)=O)C2OC(C)=O)c(=O)n1 (centres undefined)
dose: 150.0 mg/kg/injection, schedule: Q01DX009 (ip), vehicle: saline with Tween-80
  T/C: 103 % of control
dose: 300.0 mg/kg/injection, schedule: Q01DX009 (ip), vehicle: saline with Tween-80
  T/C: 114 % of control
dose: 600.0 mg/kg/injection, schedule: Q01DX009 (ip), vehicle: saline with Tween-80
  T/C: 119 % of control
dose: 1200.0 mg/kg/injection, schedule: Q01DX009 (ip), vehicle: saline with Tween-80
  T/C: 123 % of control

## COc1cc2c(cc1OC)C1CNC(=O)C1C(c1ccccc1)C2 (centres undefined)
[2]
  T/C: 91 % of control
dose: 3.75 mg/kg/injection, schedule: Q01DX009 (ip), vehicle: Klucel (hydroxypropylcellulose) (HPC)
  T/C: 91 % of control
[3]
  T/C: 98 % of control
dose: 7.5 mg/kg/injection, schedule: Q01DX009 (ip), vehicle: Klucel (hydroxypropylcellulose) (HPC)
  T/C: 97 % of control
dose: 10.0 mg/kg/injection, schedule: Q01DX009 (ip), vehicle: Klucel (hydroxypropylcellulose) (HPC)
  T/C: 94 % of control
dose: 15.0 mg/kg/injection, schedule: Q01DX009 (ip), vehicle: Klucel (hydroxypropylcellulose) (HPC)
  T/C: 92 % of control

## O=C1c2c(O)ccc(O)c2C(=O)c2c(NCCNCCO)ccc(NCCNCCO)c21
dose: 0.13 mg/kg/injection, schedule: Q01DX009 (ip), vehicle: saline with Tween-80
  T/C: 110 % of control
dose: 0.25 mg/kg/injection, schedule: Q01DX009 (ip), vehicle: saline
  T/C: 186 % of control and 188 % of control
dose: 0.25 mg/kg/injection, schedule: Q01DX009 (ip), vehicle: water
  T/C: 157 % of control and 160 % of control and 174 % of control
dose: 0.25 mg/kg/injection, schedule: Q01DX009 (oral), vehicle: acid diluted with saline
  T/C: 98 % of control
dose: 0.5 mg/kg/injection, schedule: Q01DX009 (ip), vehicle: saline
  T/C: 218 % of control
dose: 0.5 mg/kg/injection, schedule: Q01DX009 (ip), vehicle: water
  T/C: 218 % of control and 225 % of control and 247 % of control
dose: 0.5 mg/kg/injection, schedule: Q01DX009 (oral), vehicle: acid diluted with saline
  T/C: 104 % of control
dose: 1.0 mg/kg/injection, schedule: Q01DX009 (ip), vehicle: saline with Tween-80
  T/C: 152 % of control and 156 % of control
dose: 1.0 mg/kg/injection, schedule: Q01DX009 (ip), vehicle: saline
  T/C: 260 % of control and 267 % of control
dose: 1.0 mg/kg/injection, schedule: Q01DX009 (ip), vehicle: water
  T/C: 121 % of control and 202 % of control and 261 % of control
dose: 1.25 mg/kg/injection, schedule: Q01DX001 (ip), vehicle: acid diluted with saline
  T/C: 153 % of control
dose: 2.0 mg/kg/injection, schedule: Q01DX001 (ip), vehicle: water
  T/C: 212 % of control
dose: 2.0 mg/kg/injection, schedule: Q01DX009 (ip), vehicle: saline
  T/C: 207 % of control and 251 % of control
dose: 2.0 mg/kg/injection, schedule: Q01DX009 (ip), vehicle: water
  T/C: 221 % of control
dose: 2.5 mg/kg/injection, schedule: Q01DX001 (ip), vehicle: acid diluted with saline
  T/C: 123 % of control and 205 % of control
dose: 4.0 mg/kg/injection, schedule: Q01DX001 (ip), vehicle: water
  T/C: 202 % of control
dose: 8.0 mg/kg/injection, schedule: Q01DX001 (ip), vehicle: water
  T/C: 303 % of control

## CC#CCOCC(CCl)OC(=O)Nc1ccccc1 (centres undefined)
dose: 100.0 mg/kg/injection, schedule: Q04DX003 (ip), vehicle: saline with Tween-80
  T/C: 93 % of control
dose: 200.0 mg/kg/injection, schedule: Q04DX003 (ip), vehicle: saline with Tween-80
  T/C: 97 % of control
dose: 400.0 mg/kg/injection, schedule: Q04DX003 (ip), vehicle: saline with Tween-80
  T/C: 90 % of control

## CCN(CC)CCCNc1nccc2c(C)c3[nH]c4ccncc4c3cc12
dose: 0.37 mg/kg/injection, schedule: Q01DX009 (ip), vehicle: other
  T/C: 115 % of control
dose: 0.38 mg/kg/injection, schedule: Q01DX009 (ip), vehicle: other
  T/C: 160 % of control
dose: 0.75 mg/kg/injection, schedule: Q01DX009 (ip), vehicle: other
  T/C: 171 % of control and 177 % of control
dose: 1.5 mg/kg/injection, schedule: Q01DX009 (ip), vehicle: other
  T/C: 163 % of control and 218 % of control
dose: 3.0 mg/kg/injection, schedule: Q01DX009 (ip), vehicle: other
  T/C: 163 % of control and 233 % of control
dose: 6.0 mg/kg/injection, schedule: Q01DX009 (ip), vehicle: other
  T/C: 188 % of control and 213 % of control

## O=C(/C=C/c1ccc2c(c1)OCO2)c1ccc2c(c1)OCO2
[4]
  T/C: 100 % of control
[5]
  T/C: 110 % of control
[6]
  T/C: 117 % of control

## CCP(=S)(CC)P(=S)(CC)CC
[7]
  T/C: 101 % of control
[4]
  T/C: 112 % of control
[5]
  T/C: 94 % of control

## CCCCCCCCCCCCCCCCCC(=O)[O][Pb]([CH3])([CH3])[CH3]
dose: 1.25 mg/kg/injection, schedule: Q01DX009 (ip), vehicle: Klucel (hydroxypropylcellulose) (HPC)
  T/C: 99 % of control
[2]
  T/C: 99 % of control
[3]
  T/C: 91 % of control

## C=CCNc1ccc(C)cc1
dose: 12.5 mg/kg/injection, schedule: Q01DX009 (ip), vehicle: Klucel (hydroxypropylcellulose) (HPC)
  T/C: 105 % of control
dose: 25.0 mg/kg/injection, schedule: Q01DX009 (ip), vehicle: Klucel (hydroxypropylcellulose) (HPC)
  T/C: 96 % of control
[7]
  T/C: 88 % of control
[4]
  T/C: 91 % of control

## CC(CC1c2ccccc2CCc2ccccc21)CN(C)C (centres undefined)
dose: 1.25 mg/kg/injection, schedule: Q01DX009 (ip), vehicle: saline
  T/C: 98 % of control
dose: 2.5 mg/kg/injection, schedule: Q01DX009 (ip), vehicle: saline
  T/C: 106 % of control
dose: 5.0 mg/kg/injection, schedule: Q01DX009 (ip), vehicle: saline
  T/C: 94 % of control
dose: 6.25 mg/kg/injection, schedule: Q01DX009 (ip), vehicle: saline
  T/C: 113 % of control
dose: 10.0 mg/kg/injection, schedule: Q01DX009 (ip), vehicle: saline
  T/C: 106 % of control
[1]
  T/C: 119 % of control
dose: 20.0 mg/kg/injection, schedule: Q01DX009 (ip), vehicle: saline
  T/C: 106 % of control
dose: 40.0 mg/kg/injection, schedule: Q01DX009 (ip), vehicle: saline
  T/C: 101 % of control
dose: 80.0 mg/kg/injection, schedule: Q01DX009 (ip), vehicle: saline
  T/C: 92 % of control

## Cc1cccc(C)c1NC(=O)Nc1ccc(Cl)cc1
[4]
  T/C: 93 % of control
[5]
  T/C: 93 % of control
[6]
  T/C: 87 % of control

## CC[C@@]1(O)C[C@H](OC2CC(N(C)C)C(OC3CC(O)C(OC4CC(O)C(O)C(C)O4)C(C)O3)C(C)O2)c2c(cc3c(c2O)C(=O)c2c(O)ccc(O)c2C3=O)[C@H]1C(=O)OC (some centres undefined)
dose: 0.03 mg/kg/injection, schedule: Q01DX001 (ip), vehicle: saline
  T/C: 105 % of control
dose: 0.05 mg/kg/injection, schedule: Q01DX001 (ip), vehicle: saline
  T/C: 118 % of control
dose: 0.1 mg/kg/injection, schedule: Q01DX001 (ip), vehicle: saline
  T/C: 119 % of control
dose: 0.25 mg/kg/injection, schedule: Q01DX009 (ip), vehicle: other
  T/C: 161 % of control
dose: 0.5 mg/kg/injection, schedule: Q01DX009 (ip), vehicle: other
  T/C: 161 % of control
dose: 0.8 mg/kg/injection, schedule: Q01DX001 (ip), vehicle: saline
  T/C: 163 % of control
dose: 1.0 mg/kg/injection, schedule: Q01DX009 (ip), vehicle: alcohol
  T/C: 210 % of control
dose: 1.0 mg/kg/injection, schedule: Q01DX009 (ip), vehicle: other
  T/C: 188 % of control
dose: 1.6 mg/kg/injection, schedule: Q01DX001 (ip), vehicle: saline
  T/C: 168 % of control
dose: 2.0 mg/kg/injection, schedule: Q01DX009 (ip), vehicle: alcohol
  T/C: 216 % of control
dose: 2.16 mg/kg/injection, schedule: Q01DX001 (ip), vehicle: water
  T/C: 106 % of control
dose: 3.6 mg/kg/injection, schedule: Q01DX001 (ip), vehicle: water
  T/C: 97 % of control
dose: 6.0 mg/kg/injection, schedule: Q01DX001 (ip), vehicle: water
  T/C: 100 % of control
dose: 10.0 mg/kg/injection, schedule: Q01DX001 (ip), vehicle: water
  T/C: 89 % of control

## S=C=NCCCCCCCCCCCCN=C=S
dose: 3.12 mg/kg/injection, schedule: Q01DX009 (ip), vehicle: saline with Tween-80
  T/C: 99 % of control
dose: 6.25 mg/kg/injection, schedule: Q01DX009 (ip), vehicle: saline with Tween-80
  T/C: 86 % of control
dose: 12.5 mg/kg/injection, schedule: Q01DX009 (ip), vehicle: saline with Tween-80
  T/C: 98 % of control
